Assay results from EP1153612A1, “ANTICANCER AGENT POTENTIATORS” (Tsuruo, Takashi, priority 1999, dated 2000).

Columns and labels:
[1] = test system: human colon cancer cell HT29; test: Anticancer therapy in human cancer cell-transplanted nude mouse model (size of tumor lump); type: in vivo, nude mouse BALB/cAnNCrj-nu/nu; details: Example 5; intraperitoneally three times every 4 days; etoposide 33 mg/kg, lactacystin 40 mg/kg; in combined use lactacystin 5 hours before etoposide; FIG. 11
Description: A human colon cancer cell HT29 was transplanted subcutaneously to a nude mouse to examine a therapeutic effect of combined use of lactacystin, the proteasome inhibiting agent, with etoposide, the anticancer drug targeting topoisomerase II.
As an experimental animal, the nude mouse BALB/cAnNCrj-nu/nu of 8-week old female (Charles River Laboratories product) was used. In order to form a tumor lump in the nude mouse, 1×10^7 HT29 cells was subcutaneously transplanted. After 8 to 10 days of transplanting, the tumor lump of HT29 cells grew to […] and at this point, the therapy was started. […]
The therapy was conducted by dividing the HT29 tumor-transplanted mice into 4 groups to assign 4 animals to 1 group as follows by administering intraperitoneally three times every 4 days: (1) control group untreated with saline, (2) etoposide 33 mg/kg, (3) lactacystin 40 mg/kg, (4) lactacystin 40 mg/kg and etoposide 33 mg/kg. […] Since start of the therapy, a size of the tumor lump was measured to measure effect of the therapy by administration of drugs once every 4 days. […]
The effect of therapy by simultaneous administration of the proteasome inhibiting agent, lactacystin, and the topoisomerase II-targeting anticancer, doxorubicin was examined. […] After start of treatment, once every 4 to 5 days, the size of the tumor lump was measured to measure the effect of treatment by drug administration.

[2] = test system: topoisomerase IIα; test: Amount of expression of topoisomerase IIα in whole cell extract by western blotting; type: cell-based, human; details: glucose starvation condition 14 hours; PSI, MG115, MG132 5 µM; lactacystin 10 µM; E64, ZLLal 50 µM; FIG. 5(a)-(c)
Description: Topoisomerase II inhibiting anticancer drug stabilizes a complex (cleavable complex) consisting of the DNA and topoisomerase IIα occurring in a catalytic reaction process of topoisomerase IIα to cause DNA damage. Therefore, cell-killing effect of the topoisomerase II-inhibiting anticancer drug depends on the amount of intracellular expression of topoisomerase IIα essential for formation of the cleavable complex. Then, the amount of expression of topoisomerase IIα in the cultured cancer cell under the glucose starvation and hypoxia environment that are found in the solid cancer and the effect of the proteasome inhibiting agent to the amount of expression were examined.
The culture condition of cells is same as that described in Example 1 including the M phase synchronous culture method and culture under the glucose starvation condition. Culture under hypoxia condition, that is found in the solid cancer, similar to glucose starvation was carried out using the culture medium (that prepared by adding 5% FBS to RPMI1640 culture medium) under the ordinary condition in a Gaspack 100 anaerobic system (Becton Dickinson made). Culture under the glucose starvation condition and hypoxia condition was carried out for 14 hours .
With the purpose to prepare a whole cell extract solution, cells culture under the above described condition were washed with an ice-cooled PBS twice and then, cells were removed from the culture dish by using a cell scraper (Sumitomo Bakelite made) for collection. Cells collected were precipitated by centrifugation and then, dissolved in an SDS sample buffer to collect as the extract solution from all cells. For reference, the composition of the SDS sample buffer was 10% v/v, glycerol, 5% 2-mercaptoethanol, 2% SDS (sodium lauryl sulfate), and 62.5 mM tris-hydrochloric acid (pH 6.8).
The amount of topoisomerase IIα in the extract solution from all cells was measured by the western blotting method. The extract solution from all cells containing a total protein quantity of 30 µg was put on an SDS polyacrylamide gel (4-20 Multigel: Daiichi Pure Chemicals K.K. made) and subjected to electrophoresis in an electrophoresis buffer (25 mM tris, 192 mM glycine, and 0.1% SDS) in a 40 mA constant current for 1 hour. Subsequently, blotting was carried out in 4°C blotting buffer (25 mM tris, 192 mM glycine, and 20% methanol) in a 50 V constant voltage for 12 hours to transfer a protein separated in the SDS polyacrylamide gel to a nitrocellulose membrane. This nitrocellulose membrane was soaked in a blocking buffer (0.1% Tween 20, 4% skim milk-added PBS) for 1 hour to carry out blocking. The nitrocellulose membrane blocked was soaked in a solution, that was prepared by adding anti-topoisomerase IIα antibody (Cambridge Research Biochemicals Corp. made) of the final concentration 1 µg/ml as the primary antibody to the blocking buffer solution, for 1 hour. The nitrocellulose membrane was washed with the blocking buffer three times (5 minutes once), and then, soaked in the solution, in which a 1/1000 volume of an antimouse antibody (Amersham Pharmacia Biotech made) labeled with horse radish peroxidase as a secondary antibody had been added to the blocking buffer, for 1 hour. The nitrocellulose membrane was washed with the blocking buffer three times (5 minutes once), and then, washed with the PBS, to which 0.1% Tween 20 was added, three times (5 minutes once). The nitrocellulose membrane after completion of antibody reaction and washing was treated with the ECL reagent (Amersham Pharmacia Biotech made) after a handling manual and a topoisomerase IIα-specific signal was detected on an X-OMAT™AR film (Kodakmade). For reference, steps after blotting was carried out in a room temperature. […]
The cell culture condition for both M phase-synchronized culture method and culture under the glucose starvation condition was as described in Example 1. […]

Compound: CC(=O)N[C@@H](CSC(=O)[C@]1([C@@H](O)C(C)C)NC(=O)[C@H](C)[C@@H]1O)C(=O)O [lactacystin]
- suppression of tumor proliferation (size of the tumor lump) [1]: less suppression of tumor proliferation
- expressed amount of topoisomerase IIα [2]: similarly inhibits drop of expression of topoisomerase IIα
